Data published in patent US20080058213A1, “Benzoxazole Compounds” (priority 2004, published 2008).

Columns and labels:
Assay type in all cases: in vivo
[1] = test system: slender amaranth (Amaranthus viridis); assay: Soil treatment test for upland field (Test Example 2): slender amaranth; conditions: soil treatment before germination, examined after 3 weeks
Description: (§1) Evaluation of the herbicidal effect is shown in the following six grades, by comparing the condition of untreated control and growth inhibition (%): • 0: 0%-less than 20% • 1: 20%-less than 40% • 2: 40%-less than 60% • 3: 60%-less than 80% • 4: 80%-less than 100% • 5: 100%.
(§2) Upland field soil was filled in 1/3,000 are pots, seeded with southern crabgrass (Digitaria ciliaris), common lambsquaters (Chenopodium album), slender amaranth (Amaranthus viridis), common purslane (Portulaca oleracea), velvetleaf (Abutilon theophrasti), wheat, corn and soybean. The seeds were covered up with the soil.
(§3) Wettable powders containing the object compounds (1) as identified in Table 1, which were formulated following Preparation Example 2, were diluted with adequate amount of water to secure the prescribed dose of the active ingredient, and uniformly sprayed onto the surface soil layer after the seeding and before germination of the weeds, at an application water of 15 liters per are.
(§4) After placing the test pots in a glasshouse which was kept at an average temperature of 25° C. for 3 weeks, the herbicidal effect was examined.
(§5) Evaluations of the herbicidal effect and phytotoxicity were made in the manner similar to those in the above Test Example 1.

[2] = test system: southern crabgrass; assay: Foliage treatment test for upland field (Test Example 3): southern crabgrass; conditions: foliage treatment at 1.0-2.0 leaf stage of southern crabgrass, examined after 3 weeks
Description: as §1
(§6) Compost mixed soil was filled in 1/3,000 are pots, seeded with southern crabgrass, common lambsquaters, slender amaranth, common purslane, velvetleaf, wheat, corn and soybean. The seeds were covered up with the soil and cultured in a glasshouse kept at 25° C. on the average.
(§7) Wettable powders containing the object compounds (1) as identified in Table 1, which were formulated following Preparation Example 2, were diluted with water to the prescribed dose of the active ingredient, and uniformly sprayed onto the weeds at 1.0-2.0 leaf stage of the southern crabgrass at an application water of 15 liters per are.
(§8) After placing the test pots in a grasshouse kept at 25° C. on the average for 3 weeks, the herbicidal effect was examined.
(§9) Evaluation of the herbicidal effect was conducted in the similar manner to Test Example 1.

[3] = test system: corn; assay: Soil treatment test for upland field (Test Example 2): phytotoxicity to corn; conditions: soil treatment before germination, examined after 3 weeks
Description: (§10) Evaluation of phytotoxicity is shown in the following six grades, as compared with the condition of untreated control: • 0: normal growth • 1: little damaged • 2: low damaged • 3: medium damaged • 4: serious damaged • 5: complete killed.
as §2, §4

[4] = test system: soybean; assay: Soil treatment test for upland field (Test Example 2): phytotoxicity to soybean; conditions: soil treatment before germination, examined after 3 weeks
Description: as §10, §2, §4

[5] = test system: corn; assay: Foliage treatment test for upland field (Test Example 3): phytotoxicity to corn; conditions: foliage treatment at 1.0-2.0 leaf stage of southern crabgrass, examined after 3 weeks
Experimental: as §10, §6, §8

[6] = test system: common lambsquaters (Chenopodium album); assay: Soil treatment test for upland field (Test Example 2): common lambsquaters; conditions: soil treatment before germination, examined after 3 weeks
Description: as §1, §2, §3, §4, §5

[7] = test system: velvetleaf (Abutilon theophrasti); assay: Soil treatment test for upland field (Test Example 2): velvetleaf; conditions: soil treatment before germination, examined after 3 weeks
Description: as §1, §2, §3, §4, §5

[8] = test system: soybean; assay: Foliage treatment test for upland field (Test Example 3): phytotoxicity to soybean; conditions: foliage treatment at 1.0-2.0 leaf stage of southern crabgrass, examined after 3 weeks
Experimental: as §10, §6, §8

[9] = test system: wheat; assay: Soil treatment test for upland field (Test Example 2): phytotoxicity to wheat; conditions: soil treatment before germination, examined after 3 weeks
Description: as §10, §2, §4

[10] = test system: common purslane; assay: Foliage treatment test for upland field (Test Example 3): common purslane; conditions: foliage treatment at 1.0-2.0 leaf stage of southern crabgrass, examined after 3 weeks
Description: as §1, §6, §7, §8, §9

[11] = test system: common lambsquaters; assay: Foliage treatment test for upland field (Test Example 3): common lambsquaters; conditions: foliage treatment at 1.0-2.0 leaf stage of southern crabgrass, examined after 3 weeks
Description: as §1, §6, §7, §8, §9

[12] = test system: wheat; assay: Foliage treatment test for upland field (Test Example 3): phytotoxicity to wheat; conditions: foliage treatment at 1.0-2.0 leaf stage of southern crabgrass, examined after 3 weeks
Experimental: as §10, §6, §8

[13] = test system: velvetleaf; assay: Foliage treatment test for upland field (Test Example 3): velvetleaf; conditions: foliage treatment at 1.0-2.0 leaf stage of southern crabgrass, examined after 3 weeks
Description: as §1, §6, §7, §8, §9

[14] = test system: southern crabgrass (Digitaria ciliaris); assay: Soil treatment test for upland field (Test Example 2): southern crabgrass; conditions: soil treatment before germination, examined after 3 weeks
Description: as §1, §2, §3, §4, §5

[15] = test system: common purslane (Portulaca oleracea); assay: Soil treatment test for upland field (Test Example 2): common purslane; conditions: soil treatment before germination, examined after 3 weeks
Description: as §1, §2, §3, §4, §5

[16] = test system: slender amaranth; assay: Foliage treatment test for upland field (Test Example 3): slender amaranth; conditions: foliage treatment at 1.0-2.0 leaf stage of southern crabgrass, examined after 3 weeks
Description: as §1, §6, §7, §8, §9

SMILES	Herbicidal Effect slender amaranth ([1]; dose 2.5 g ai/a)	Herbicidal Effect slender amaranth ([1]; dose 5 g ai/a)	Herbicidal Effect southern crabgrass ([2]; dose 2.5 g ai/a)	Herbicidal Effect southern crabgrass ([2]; dose 5 g ai/a)	Phytotoxicity corn ([3]; dose 2.5 g ai/a)	Phytotoxicity corn ([3]; dose 5 g ai/a)	Phytotoxicity soybean ([4]; dose 2.5 g ai/a)	Phytotoxicity soybean ([4]; dose 5 g ai/a)	Phytotoxicity corn ([5]; dose 2.5 g ai/a)	Phytotoxicity corn ([5]; dose 5 g ai/a)	Herbicidal Effect common lambsquaters ([6]; dose 2.5 g ai/a)	Herbicidal Effect common lambsquaters ([6]; dose 5 g ai/a)	Herbicidal Effect velvetleaf ([7]; dose 2.5 g ai/a)	Herbicidal Effect velvetleaf ([7]; dose 5 g ai/a)	Phytotoxicity soybean ([8]; dose 2.5 g ai/a)	Phytotoxicity soybean ([8]; dose 5 g ai/a)	Phytotoxicity wheat ([9]; dose 2.5 g ai/a)	Phytotoxicity wheat ([9]; dose 5 g ai/a)	Herbicidal Effect common purslane ([10]; dose 2.5 g ai/a)	Herbicidal Effect common purslane ([10]; dose 5 g ai/a)	also measured
CSCC(=Cc1cccc(C(F)(F)F)c1)c1nc2cc(C(F)(F)F)ccc2o1 [Compound 82]	5 (100%)	5 (100%)	4 (80%-less than 100%)	4 (80%-less than 100%)	0	0	0	0	0	1	5 (100%)	5 (100%)	2 (40%-less than 60%)	2 (40%-less than 60%)	1	1	0	0	5 (100%)	5 (100%)	Herbicidal Effect Common lambsquatters ([11]; dose 2.5 g ai/a): 5 (100%); Herbicidal Effect Common lambsquatters ([11]; dose 5 g ai/a): 5 (100%); Phytotoxicity wheat ([12]; dose 2.5 g ai/a): 0; Phytotoxicity wheat ([12]; dose 5 g ai/a): 0; Herbicidal Effect velvetleaf ([13]; dose 2.5 g ai/a): 2 (40%-less than 60%); Herbicidal Effect velvetleaf ([13]; dose 5 g ai/a): 3 (60%-less than 80%); Herbicidal Effect southern crabgrass ([14]; dose 2.5 g ai/a): 3 (60%-less than 80%); Herbicidal Effect southern crabgrass ([14]; dose 5 g ai/a): 3 (60%-less than 80%); Herbicidal Effect common purslane ([15]; dose 2.5 g ai/a): 5 (100%); Herbicidal Effect common purslane ([15]; dose 5 g ai/a): 5 (100%); Herbicidal Effect slender amaranth ([16]; dose 2.5 g ai/a): 5 (100%); Herbicidal Effect slender amaranth ([16]; dose 5 g ai/a): 5 (100%)
CCSCC(=Cc1cccc(C(F)(F)F)c1)c1nc2cc(C(F)(F)F)ccc2o1 [Compound 84]	4 (80%-less than 100%)	5 (100%)	4 (80%-less than 100%)	4 (80%-less than 100%)	0	0	0	0	0	1	5 (100%)	5 (100%)	2 (40%-less than 60%)	2 (40%-less than 60%)	0	0	0	0	4 (80%-less than 100%)	5 (100%)	Herbicidal Effect Common lambsquatters ([11]; dose 2.5 g ai/a): 4 (80%-less than 100%); Herbicidal Effect Common lambsquatters ([11]; dose 5 g ai/a): 5 (100%); Phytotoxicity wheat ([12]; dose 2.5 g ai/a): 0; Phytotoxicity wheat ([12]; dose 5 g ai/a): 0; Herbicidal Effect velvetleaf ([13]; dose 2.5 g ai/a): 2 (40%-less than 60%); Herbicidal Effect velvetleaf ([13]; dose 5 g ai/a): 3 (60%-less than 80%); Herbicidal Effect southern crabgrass ([14]; dose 2.5 g ai/a): 3 (60%-less than 80%); Herbicidal Effect southern crabgrass ([14]; dose 5 g ai/a): 3 (60%-less than 80%); Herbicidal Effect common purslane ([15]; dose 2.5 g ai/a): 5 (100%); Herbicidal Effect common purslane ([15]; dose 5 g ai/a): 5 (100%); Herbicidal Effect slender amaranth ([16]; dose 2.5 g ai/a): 5 (100%); Herbicidal Effect slender amaranth ([16]; dose 5 g ai/a): 5 (100%)
